This note sets out measurements from US12643858B2 (Inipharm, Inc., priority 2020, dated 2026).

The assay addresses T1, HSD17B13 enzyme (Homo sapiens, UniProt Q7Z5P4).
T1 construct: His; made in house; host or cells: E. coli
T1 sequence (Q7Z5P4 20-300): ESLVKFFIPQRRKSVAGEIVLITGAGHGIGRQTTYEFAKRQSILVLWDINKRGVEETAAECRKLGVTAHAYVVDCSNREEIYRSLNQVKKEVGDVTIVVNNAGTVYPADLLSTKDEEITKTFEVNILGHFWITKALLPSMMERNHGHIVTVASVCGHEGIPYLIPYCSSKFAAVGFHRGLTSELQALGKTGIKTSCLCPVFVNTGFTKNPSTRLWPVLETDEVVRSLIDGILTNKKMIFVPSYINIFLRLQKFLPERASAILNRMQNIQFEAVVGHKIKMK
Description: NADH detection assay (fluorescence based LTB3 assay) for HSD17B13 activity. Type of assay: biochemical. The conditions noted are these: substrate 25 μM LTB3, 3 mM NAD+, 125 nM HSD17B13 enzyme, 1 hour at 26.5° C. Here is the method:
Example A: NADH Detection Assay for Evaluation of HSD17ß13 Activity and Identification of Inhibitors
The fluorescence based Leukotriene B3 (LTB3) assay monitors the fluorescence of NADH, which is generated from NAD+ during the dehydrogenation of the substrate LTB3. The reactions were performed in a 384-well plates (Greiner; #655076) in a 20 μl reaction volume containing the following reagents (final concentrations): 25 μM LTB3 (Cayman; #20109); 3 mM NAD+ (Sigma; #N0623); 125 nM HSD17B13 enzyme (in-house; E. coli expressed His-tagged, purified, soluble protein); […] potassium phosphate buffer, pH 7.4; and 1% DMSO. Reactions were initiated by co-addition of NAD+ and enzyme, and monitored for 1 hour at 26.5° C. Generation of NADH was measured as the fluorescence signal (Excitation at 340 nm and Emission at 445 nm) at 1 hour minus the baseline fluorescence at t=0. Fluorescence signals in the absence of LTB3 (negative control values), were subtracted from all values so that the results reflected substrate-dependent production of NADH. NADH standards were included to allow the conversion of relative fluorescence units into rates of enzyme activity. Enzyme activity in the presence of test compounds was expressed as a percentage of the uninhibited enzyme activity, and plotted versus inhibitor concentration. Non-linear regression was performed using a four-parameter logistic model and GraphPad Prism software (GraphPad Software, La Jolla, CA). Ten concentrations of inhibitor were tested (in the range of 30 μM-2.5 nM), and two independent assessments were performed at each concentration.
With `COc1cccc(-c2cccc(Oc3ccc(O)nc3)n2)c1F` [Example 108, 5-{[6-(2-fluoro-3-methoxyphenyl)pyridin-2-yl]oxy}-1,2-dihydropyridin-2-one], the IC50 (commonly the point on the concentration scale where inhibition reaches its midpoint) is more than 30 µM.
Under `COc1cccc(-c2cccc(Oc3ccc(F)c(NS(C)(=O)=O)c3)n2)c1F` [Example 111, N-(2-fluoro-5-((6-(2-fluoro-3-methoxyphenyl)pyridin-2-yl)oxy)phenyl) methanesulfonamide] stands more than 30 µM; under `Oc1cc(Oc2cccc(-c3ccc(O)c(OCc4ccccc4)c3)n2)ccc1F` [Example 28, 2-(benzyloxy)-4-[6-(4-fluoro-3-hydroxyphenoxy)pyridin-2-yl] phenol], not above 5 µM; under `CC(=O)Nc1cccc(-c2cccc(Oc3ccc(F)c(O)c3)n2)c1` [Example 79, N-(3-(6-(4-fluoro-3-hydroxyphenoxy)pyridin-2-yl)phenyl)acetamide], not above 5 µM.
In the case of `O=S(=O)(Nc1ccccc1)c1cccc(-c2cccc(Oc3ccc(F)c(O)c3)n2)c1` [Example 45, 3-(6-(4-fluoro-3-hydroxyphenoxy)pyridin-2-yl)-N-phenylbenzene sulfonamide] it was not above 5 µM.
Under `COc1ccccc1-c1cccc(Oc2ccc(F)c(O)c2)n1` [Example 99, 2-fluoro-5-((6-(2-methoxyphenyl)pyridin-2-yl)oxy)phenol] stands 10 to 30 µM.
Consider `COc1cccc(-c2cccc(Oc3ccc(=O)n(C(F)F)c3)n2)c1F` [Example 112, 1-(difluoromethyl)-5-((6-(2-fluoro-3-methoxyphenyl)pyridin-2-yl)oxy)pyridin-2(1H)-one], for which the IC50 is more than 30 µM.
For `Oc1cc(Oc2cccc(-c3ccc(O)c(F)c3)n2)ccc1F` [Example 39, 2-fluoro-4-(6-(4-fluoro-3-hydroxyphenoxy)pyridin-2-yl)phenol], the IC50 is not above 5 µM.
Compound `Oc1cc(Oc2cccc(-c3ccc4cn[nH]c4c3)n2)ccc1F` [Example 3, 5-((6-(1H-indazol-6-yl)pyridin-2-yl)oxy)-2-fluorophenol] returned an IC50 of 5 to 10 µM.
In the case of `CS(=O)(=O)c1ccc(-c2cccc(Oc3ccc(F)c(O)c3)n2)cc1` [Example 77, 2-fluoro-5-((6-(4-(methylsulfonyl)phenyl)pyridin-2-yl)oxy)phenol] it was 10 to 30 µM.
In the case of `N#Cc1cccc(-c2cccc(Oc3ccc(F)c(O)c3)n2)c1` [Example 104, 3-(6-(4-fluoro-3-hydroxyphenoxy)pyridin-2-yl)benzonitrile], the half-inhibitory concentration (IC50) fell in the range of 10 to 30 µM.
As to `O=S(=O)(c1cccc(-c2cccc(Oc3ccc(F)c(O)c3)n2)c1)N1CCNCC1` [Example 48, 2-fluoro-5-((6-(3-(piperazin-1-ylsulfonyl)phenyl)pyridin-2-yl)oxy) phenol], the IC50 was more than 30 µM.
Turning to `COc1cccc(-c2cccc(Oc3ccc(F)c(NC(C)=O)c3)n2)c1F` [Example 107, N-(2-fluoro-5-{[6-(2-fluoro-3-methoxyphenyl)pyridin-2-yl]oxy}phenyl)acetamide], the IC50 is more than 30 µM.
In the case of `CNC(=O)c1ccc(-c2cccc(Oc3ccc(F)c(O)c3)n2)cc1` [Example 80, 4-(6-(4-fluoro-3-hydroxyphenoxy)pyridin-2-yl)-N-methylbenzamide] it was not above 5 µM.
Take `Oc1cccc(-c2cccc(Oc3ccc(F)c(C(F)F)c3)n2)c1F` [Example 13, 3-{6-[3-(difluoromethyl)-4-fluorophenoxy]pyridin-2-yl}-2-fluorophenol]: the IC50 was in the range of 5 to 10 µM.
For `CN(C)S(=O)(=O)c1cccc(-c2cccc(Oc3ccc(F)c(O)c3)n2)c1` [Example 20, 3-(6-(4-fluoro-3-hydroxyphenoxy)pyridin-2-yl)-N,N-dimethylbenzenesulfonamide], the IC50 lay within 5 to 10 µM.
In the case of `CNC(=O)c1cccc(-c2cccc(Oc3ccc(F)c(O)c3)n2)c1` [Example 81, 3-(6-(4-fluoro-3-hydroxyphenoxy)pyridin-2-yl)-N-methylbenzamide] it was not above 5 µM.
`NS(=O)(=O)Nc1cc(Oc2cccc(-c3cccc(O)c3F)n2)ccc1F` [Example 30, N-(2-fluoro-5-{[6-(2-fluoro-3-hydroxyphenyl)pyridin-2-yl]oxy}phenyl)aminosulfonamide] yielded an IC50 of more than 30 µM.
Under `CS(=O)(=O)Nc1cc(Oc2cccc(-c3cccc(O)c3F)n2)ccc1F` [Example 57, N-(2-fluoro-5-{[6-(2-fluoro-3-hydroxyphenyl)pyridin-2-yl]oxy}phenyl)methane-sulfonamide] stands more than 30 µM; under `COc1cccc(-c2cccc(Oc3ccc4cn[nH]c4c3)n2)c1F` [Example 105, 6-{[6-(2-fluoro-3-methoxyphenyl)pyridin-2-yl]oxy}-1H-indazole], more than 30 µM; under `Oc1cc(Oc2ccnc(-c3cccc(O)c3F)n2)ccc1F` [Example 17, 2-fluoro-3-[4-(4-fluoro-3-hydroxyphenoxy)pyrimidin-2-yl]phenol], not above 5 µM.
In the case of `COc1ccc(-c2cccc(Oc3ccc(F)c(O)c3)n2)cc1` [Example 102, 2-fluoro-5-((6-(4-methoxyphenyl)pyridin-2-yl)oxy)phenol] it was 10 to 30 µM; in that of `Oc1cc(Oc2cccc(-c3ccc(F)c(O)c3)n2)ccc1F` [Example 40, 2-fluoro-5-(6-(4-fluoro-3-hydroxyphenoxy)pyridin-2-yl)phenol], not above 5 µM; in that of `O=S(=O)(Nc1cccc(-c2cccc(Oc3ccc(F)c(O)c3)n2)c1)C1CC1` [Example 113, N-(3-(6-(4-fluoro-3-hydroxyphenoxy)pyridin-2-yl)phenyl) cyclopropanesulfonamide], 10 to 30 µM.
Under `CNC(=O)c1cc(Oc2ccc(F)c(O)c2)nc(-c2cccc(O)c2F)c1` [Example 69, 2-(4-fluoro-3-hydroxyphenoxy)-6-(2-fluoro-3-hydroxyphenyl)-N-methylpyridine-4-carboxamide] stands 10 to 30 µM; under `CN(c1ccc(F)c(O)c1)c1cccc(-c2cccc(O)c2F)c1C#N` [Example 23], more than 30 µM.
In turn, `COc1cccc(-c2cccc(Oc3cccc(NS(=O)(=O)C4CC4)c3)n2)c1F` [Example 95, N-(3-{[6-(2-fluoro-3-methoxyphenyl)pyridin-2-yl]oxy}phenyl)cyclopropane-sulfonamide] had an IC50 of more than 30 µM.
In the case of `COc1cccc(F)c1-c1cccc(Oc2ccc(F)c(O)c2)n1` [Example 74, 2-fluoro-5-((6-(2-fluoro-6-methoxyphenyl)pyridin-2-yl)oxy)phenol] it was more than 30 µM; in that of `COc1cccc(-c2cccc(Oc3cccc(CNS(C)(=O)=O)c3)n2)c1F` [Example 96, N-[(3-{[6-(2-fluoro-3-methoxyphenyl)pyridin-2-yl]oxy}phenyl)methyl]methane-sulfonamide], more than 30 µM; in that of `CC(=O)Nc1nc2cc(-c3cccc(Oc4ccc(F)c(O)c4)n3)ccc2s1` [Example 61, N-(5-(6-(4-fluoro-3-hydroxyphenoxy)pyridin-2-yl)benzo[d]thiazol-2-yl) acetamide], more than 30 µM.
Under `Oc1cc(Oc2cccc(-c3ccc4scnc4c3)n2)ccc1F` [Example 50, 5-{[6-(1,3-benzothiazol-5-yl)pyridin-2-yl]oxy}-2-fluorophenol] stands not above 5 µM; under `O=c1ccc(Oc2cccc(-c3cccc(O)c3F)n2)cn1C(F)F` [Example 5, 1-(difluoromethyl)-5-((6-(2-fluoro-3-hydroxyphenyl)pyridin-2-yl)oxy)pyridin-2(1H)-one], more than 30 µM; under `CN1CCOc2cc(-c3cccc(Oc4ccc(F)c(O)c4)n3)ccc21` [Example 33, 2-fluoro-5-((6-(4-methyl-3,4-dihydro-2H-benzo[b][1,4]oxazin-7-yl)pyridin-2-yl)oxy)phenol], not above 5 µM.
In the case of `COc1ccc(-c2cccc(Oc3ccc(F)c(O)c3)n2)c(F)c1` [Example 87, 2-fluoro-5-{[6-(2-fluoro-4-methoxyphenyl)pyridin-2-yl]oxy}phenol] it was not above 5 µM; in that of `Oc1cccc(-c2cccc(Oc3cccnc3)n2)c1F` [Example 2, 2-fluoro-3-(6-(pyridin-3-yloxy)pyridin-2-yl) phenol], 5 to 10 µM; in that of `O=C(O)c1cccc(-c2cccc(Oc3ccc(F)c(O)c3)n2)c1` [Example 68, 3-(6-(4-fluoro-3-hydroxyphenoxy)pyridin-2-yl)benzoic acid], more than 30 µM.
As for `COc1cc(Oc2cccc(-c3ccc4c(c3)NS(=O)(=O)C4)n2)ccc1F` [Example 60, 6-(6-(4-fluoro-3-methoxyphenoxy)pyridin-2-yl)-1,3-dihydrobenzo[c]isothiazole 2,2-dioxide], the IC50 was more than 30 µM.
